# Experimental data as given in patent US20180099961A1, “PROTEIN KINASE INHIBITORS” (Princeton Drug Discovery Inc, priority 2016, published 2018).
# Like-named read-outs stand apart in the source and are kept apart here.
# Assays:
# [1] = target: T1, ACK (Homo sapiens, UniProt Q07912); experiment: Off-chip Mobility Shift Assay; assay type: biochemical; settings: read-out: IC50, recombinant ACK activity
# T1 construct: purchased Carna Biosciences
# [2] = target: T2, PDGFRα (Homo sapiens, UniProt P16234); experiment: Off-chip Mobility Shift Assay; assay type: biochemical; settings: read-out: IC50, recombinant PDGFRα activity
# T2 construct: purchased Carna Biosciences
# [3] = test system: RAF1; experiment: Off-chip Mobility Shift Assay; assay type: biochemical; settings: 10 nM
# [4] = target: T3, PIK3CA/PIK3R1 (Homo sapiens, UniProt P42336); experiment: Off-chip Mobility Shift Assay; assay type: biochemical; settings: read-out: IC50, recombinant PIK3CA/PIK3R1 activity
# T3 construct: purchased Carna Biosciences
# T3 sequence (P42336 whole entry): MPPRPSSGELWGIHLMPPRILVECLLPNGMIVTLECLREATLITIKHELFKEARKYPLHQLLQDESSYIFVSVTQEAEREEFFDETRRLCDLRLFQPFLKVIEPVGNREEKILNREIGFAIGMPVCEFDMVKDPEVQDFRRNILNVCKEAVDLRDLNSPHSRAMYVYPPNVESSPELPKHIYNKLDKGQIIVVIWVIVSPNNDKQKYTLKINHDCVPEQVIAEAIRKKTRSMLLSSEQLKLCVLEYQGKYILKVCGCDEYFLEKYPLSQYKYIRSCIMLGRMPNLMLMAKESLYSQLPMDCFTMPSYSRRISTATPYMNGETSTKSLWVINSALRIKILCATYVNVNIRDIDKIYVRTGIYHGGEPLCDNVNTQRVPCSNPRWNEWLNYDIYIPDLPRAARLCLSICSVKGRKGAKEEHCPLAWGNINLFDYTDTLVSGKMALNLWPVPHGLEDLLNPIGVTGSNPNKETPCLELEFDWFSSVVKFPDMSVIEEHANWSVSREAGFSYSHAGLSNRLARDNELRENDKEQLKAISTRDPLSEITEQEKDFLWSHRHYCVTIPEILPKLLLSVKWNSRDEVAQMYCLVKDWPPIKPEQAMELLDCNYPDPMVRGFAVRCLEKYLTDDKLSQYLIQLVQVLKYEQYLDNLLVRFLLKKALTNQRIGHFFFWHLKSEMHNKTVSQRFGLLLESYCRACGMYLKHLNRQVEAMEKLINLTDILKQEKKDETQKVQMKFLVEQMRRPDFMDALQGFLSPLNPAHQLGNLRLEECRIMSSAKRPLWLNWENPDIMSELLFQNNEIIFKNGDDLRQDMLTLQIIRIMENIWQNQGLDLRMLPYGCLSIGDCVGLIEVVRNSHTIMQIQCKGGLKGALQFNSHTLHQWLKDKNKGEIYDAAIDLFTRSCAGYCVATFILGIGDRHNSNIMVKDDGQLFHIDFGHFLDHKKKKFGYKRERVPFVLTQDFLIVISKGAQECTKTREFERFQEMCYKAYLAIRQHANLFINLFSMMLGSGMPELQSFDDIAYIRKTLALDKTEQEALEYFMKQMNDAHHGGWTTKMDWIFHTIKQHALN
# T3 sequence (P27986 whole entry partner): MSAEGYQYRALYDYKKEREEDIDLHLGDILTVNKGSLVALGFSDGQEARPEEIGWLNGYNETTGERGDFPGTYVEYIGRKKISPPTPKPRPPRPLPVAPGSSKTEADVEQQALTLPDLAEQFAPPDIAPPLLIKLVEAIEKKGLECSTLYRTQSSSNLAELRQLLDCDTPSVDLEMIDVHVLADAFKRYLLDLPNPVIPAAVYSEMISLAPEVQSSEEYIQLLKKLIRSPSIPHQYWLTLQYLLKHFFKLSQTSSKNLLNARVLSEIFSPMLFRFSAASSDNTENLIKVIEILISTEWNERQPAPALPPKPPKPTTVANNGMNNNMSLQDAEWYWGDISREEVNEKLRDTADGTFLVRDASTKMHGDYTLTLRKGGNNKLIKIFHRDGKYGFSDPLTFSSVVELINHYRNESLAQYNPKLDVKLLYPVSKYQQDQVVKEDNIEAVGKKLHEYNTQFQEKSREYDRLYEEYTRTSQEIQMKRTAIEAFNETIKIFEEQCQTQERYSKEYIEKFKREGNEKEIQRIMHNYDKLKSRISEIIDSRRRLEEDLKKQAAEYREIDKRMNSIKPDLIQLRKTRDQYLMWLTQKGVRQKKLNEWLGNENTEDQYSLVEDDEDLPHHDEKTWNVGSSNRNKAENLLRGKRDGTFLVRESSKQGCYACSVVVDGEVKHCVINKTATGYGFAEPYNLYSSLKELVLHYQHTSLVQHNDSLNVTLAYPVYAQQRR
# [5] = Metabolic stability in human liver microsomes; assay type: in vitro ADME; settings: for metabolic stability as compared to dasatinib: human liver microsomes; for microsomal CLint at 1 μM / half-life at 1 μM: human, liver microsomes, human liver microsomes 0.5 mg/mL, NADPH and UDPGA, 37° C.; for microsomal CLint at 1 μM: read-out: CLint (intrinsic clearance); for half-life at 1 μM: read-out: In vitro t1/2
# Procedure: FIG. 1. Metabolic stability of compounds in human liver microsomal incubations. […] Concentrations at specified times were determined by LC-MS/MS.
# The incubation reactions at various time points were quenched by adding 2× volumes of acetonitrile containing 100 nM reserpine. The quenched incubation samples were centrifuged at 4000 RPM for 10 min, and the supernatants injected for LC/MS/MS analysis. LC/MS/MS analysis was carried out on a AB Sciex 4000 Q Trap LC/MS/MS system coupled with Shimadzu Prominence UFLCXR 20 series (including a CBM-20A controller, two LC-20ADXR solvent delivery units, SIL-20AC HT autosampler, CTO-20A column oven, and a SPD-20A UV detector).
# [6] = target: T4, BTK (Homo sapiens, UniProt Q06187); experiment: Off-chip Mobility Shift Assay; assay type: biochemical; settings: read-out: IC50, recombinant BTK activity
# T4 construct: purchased Carna Biosciences
# T4 sequence (Q06187 whole entry): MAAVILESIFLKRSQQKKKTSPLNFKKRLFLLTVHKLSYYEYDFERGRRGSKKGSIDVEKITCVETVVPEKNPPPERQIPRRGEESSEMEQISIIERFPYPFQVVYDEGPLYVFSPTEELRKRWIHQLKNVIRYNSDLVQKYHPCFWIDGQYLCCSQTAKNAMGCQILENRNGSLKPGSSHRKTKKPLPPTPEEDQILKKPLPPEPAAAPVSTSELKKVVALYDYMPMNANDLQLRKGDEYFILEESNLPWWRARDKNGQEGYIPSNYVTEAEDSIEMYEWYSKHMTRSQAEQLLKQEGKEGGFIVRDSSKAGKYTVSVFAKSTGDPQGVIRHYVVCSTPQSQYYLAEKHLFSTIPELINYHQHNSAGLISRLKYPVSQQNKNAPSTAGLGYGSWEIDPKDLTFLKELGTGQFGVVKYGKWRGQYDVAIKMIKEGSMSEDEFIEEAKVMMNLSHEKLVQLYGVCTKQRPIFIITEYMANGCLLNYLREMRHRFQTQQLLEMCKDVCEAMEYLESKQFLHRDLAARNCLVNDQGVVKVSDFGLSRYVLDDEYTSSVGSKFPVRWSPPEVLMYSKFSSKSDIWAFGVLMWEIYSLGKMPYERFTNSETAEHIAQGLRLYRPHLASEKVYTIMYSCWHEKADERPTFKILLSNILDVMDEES
# [7] = target: T5, ABL (Homo sapiens, UniProt P00519); experiment: Off-chip Mobility Shift Assay; assay type: biochemical; settings: read-out: IC50, recombinant ABL activity
# T5 construct: purchased Carna Biosciences
# T5 sequence (P00519 whole entry): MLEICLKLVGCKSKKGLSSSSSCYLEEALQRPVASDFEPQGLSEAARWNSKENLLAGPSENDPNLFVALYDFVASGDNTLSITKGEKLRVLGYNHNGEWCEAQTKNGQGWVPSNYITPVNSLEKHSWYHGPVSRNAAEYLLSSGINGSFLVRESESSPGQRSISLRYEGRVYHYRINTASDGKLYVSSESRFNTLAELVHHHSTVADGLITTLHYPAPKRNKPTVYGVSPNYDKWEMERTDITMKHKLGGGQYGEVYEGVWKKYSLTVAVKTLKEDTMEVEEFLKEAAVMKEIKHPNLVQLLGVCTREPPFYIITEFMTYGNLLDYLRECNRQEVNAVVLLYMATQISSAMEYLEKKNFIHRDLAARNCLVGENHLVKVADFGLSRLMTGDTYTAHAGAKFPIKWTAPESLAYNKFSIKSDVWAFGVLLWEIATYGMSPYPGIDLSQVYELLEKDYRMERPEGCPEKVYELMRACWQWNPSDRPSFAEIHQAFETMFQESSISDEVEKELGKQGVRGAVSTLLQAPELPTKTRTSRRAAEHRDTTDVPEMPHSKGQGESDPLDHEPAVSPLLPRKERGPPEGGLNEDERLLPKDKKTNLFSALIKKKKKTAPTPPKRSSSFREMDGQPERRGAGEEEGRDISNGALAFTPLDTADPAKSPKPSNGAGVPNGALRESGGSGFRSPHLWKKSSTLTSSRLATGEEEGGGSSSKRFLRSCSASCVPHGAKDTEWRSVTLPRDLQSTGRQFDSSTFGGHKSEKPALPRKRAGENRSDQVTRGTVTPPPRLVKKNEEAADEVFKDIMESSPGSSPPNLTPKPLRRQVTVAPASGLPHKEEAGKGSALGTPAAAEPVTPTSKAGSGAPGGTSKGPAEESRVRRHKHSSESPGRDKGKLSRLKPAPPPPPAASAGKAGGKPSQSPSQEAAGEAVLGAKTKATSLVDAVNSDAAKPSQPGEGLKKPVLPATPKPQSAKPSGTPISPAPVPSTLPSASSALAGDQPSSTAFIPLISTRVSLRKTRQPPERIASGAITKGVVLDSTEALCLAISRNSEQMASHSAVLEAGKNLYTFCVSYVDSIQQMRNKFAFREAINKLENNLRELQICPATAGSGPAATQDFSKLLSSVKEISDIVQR
# [8] = Lung tissue and plasma concentration ratios in mice; assay type: in vivo, CD-1 mouse; settings: single oral dose 5 mg/kg, 2-in-1 with dasatinib, all time points tested
# Procedure: CD-1 mouse (approximate weight 30 g, N=3) were dosed by oral gavage at 10 mL/kg. Blood samples were collected into tubes containing EDTA as the anticoagulant at 1, 2, 4, 10 h post-dosing for Compound X, and predose, 1, 2, 3, 8, 10 and 24 h post-dosing for Compound XI. The plasma samples were prepared by centrifugation. Lung samples were also collected at each of the above time points. The lung samples were homogenated in 4× distilled water (v/w). The plasma samples and the homogenated lung tissue samples were mixed with 3× volumes of acetonitrile containing 100 nM reserpine as the internal standard, and centrifuged at 4000 RPM for 15 min. The supernatants were injected for LC/MS analysis which were carried out on a AB Sciex 4000 Q Trap LC/MS/MS system coupled with Shimadzu Prominence UFLCXR 20 series (including a CBM-20A controller, two LC-20ADXR solvent delivery units, SIL-20AC HT autosampler, CTO-20A column oven, and a SPD-20A UV detector). The samples were separated on a Phenomenex Columbus column (C18, 4 μm, 50×2 mm) eluted with two solvent systems: 2 mM ammonium acetate in water containing 0.1% formic acid (A) and methanol (B) at a linear gradient starting at 25%. Electrospray ionization in positive mode was used to acquire LC/MS/MS data.
# [9] = target: T6, BTK (C481S) (Homo sapiens, UniProt Q06187, C481S); experiment: Off-chip Mobility Shift Assay; assay type: biochemical; settings: read-out: IC50, recombinant BTK (C481S) activity
# T6 construct: purchased Carna Biosciences
# T6 sequence (Q06187 whole entry C481S): as the sequence (Q06187 whole entry) above, with C481S counted along it
# [10] = Pharmacokinetics in Sprague-Dawley rats, 2-in-1 dosing; assay type: in vivo; settings: for intravenous plasma clearance compared to dasatinib and compound III / intravenous volume of distribution compared to dasatinib and compound III: Sprague-Dawley rats; for clearance / Vd: single dose (Table 3); for clearance: read-out: CL (plasma clearance) (converted); for Vd: read-out: V (volume of distribution); for AUC(0-inf) / AUC(0-t) / half-life / Cmax / Tmax: single dose, plasma (Table 3); for half-life: read-out: t½ (converted)
# Procedure: Sprague-Dawley rats (approximate weight 275-300 g, N=3) were dosed intravenously at 5 mL/kg and orally at 10 mL/kg with the above dosing solutions. Blood samples were collected into tubes containing EDTA as the anticoagulant at 0, 0.25 (intravenous only), 0.5, 1, 2, 4, 8, 10, and 24 h post-dosing, and plasma samples were prepared by centrifugation. The plasma samples were mixed with 3× volumes of acetonitrile containing 100 nM reserpine as the internal standard, and centrifuged at 4000 RPM for 15 min. The supernatants were injected for LC/MS analysis which were carried out on a AB Sciex 4000 Q Trap LC/MS/MS system coupled with Shimadzu Prominence UFLCXR 20 series (including a CBM-20A controller, two LC-20ADXR solvent delivery units, SIL-20AC HT autosampler, CTO-20A column oven, and a SPD-20A UV detector). The samples were separated on a Phenomenex Columbus column (C18, 4 μm, 50×2 mm) eluted with two solvent systems: 2 mM ammonium acetate in water containing 0.1% formic acid (A) and methanol (B) at a linear gradient starting with 25% B. Electrospray ionization in positive mode was used to acquire LC/MS/MS data.
# [11] = target: T7, ABL(E255K) (Homo sapiens, UniProt P00519, E255K); experiment: Off-chip Mobility Shift Assay; assay type: biochemical; settings: read-out: IC50, recombinant ABL (E255K) activity
# T7 construct: purchased Carna Biosciences
# T7 sequence (P00519 whole entry E255K): as the sequence (P00519 whole entry) above, with E255K counted along it
# [12] = Sprague-Dawley, rat, plasma, iv, 1 mg/kg, intravenous 1 mg/kg
# [13] = Sprague-Dawley, rat, plasma, po, 5 mg/kg, PO 5 mg/kg
# [14] = Sprague-Dawley, rat, PO 5 mg/kg
# T1 sequence (Q07912 whole entry): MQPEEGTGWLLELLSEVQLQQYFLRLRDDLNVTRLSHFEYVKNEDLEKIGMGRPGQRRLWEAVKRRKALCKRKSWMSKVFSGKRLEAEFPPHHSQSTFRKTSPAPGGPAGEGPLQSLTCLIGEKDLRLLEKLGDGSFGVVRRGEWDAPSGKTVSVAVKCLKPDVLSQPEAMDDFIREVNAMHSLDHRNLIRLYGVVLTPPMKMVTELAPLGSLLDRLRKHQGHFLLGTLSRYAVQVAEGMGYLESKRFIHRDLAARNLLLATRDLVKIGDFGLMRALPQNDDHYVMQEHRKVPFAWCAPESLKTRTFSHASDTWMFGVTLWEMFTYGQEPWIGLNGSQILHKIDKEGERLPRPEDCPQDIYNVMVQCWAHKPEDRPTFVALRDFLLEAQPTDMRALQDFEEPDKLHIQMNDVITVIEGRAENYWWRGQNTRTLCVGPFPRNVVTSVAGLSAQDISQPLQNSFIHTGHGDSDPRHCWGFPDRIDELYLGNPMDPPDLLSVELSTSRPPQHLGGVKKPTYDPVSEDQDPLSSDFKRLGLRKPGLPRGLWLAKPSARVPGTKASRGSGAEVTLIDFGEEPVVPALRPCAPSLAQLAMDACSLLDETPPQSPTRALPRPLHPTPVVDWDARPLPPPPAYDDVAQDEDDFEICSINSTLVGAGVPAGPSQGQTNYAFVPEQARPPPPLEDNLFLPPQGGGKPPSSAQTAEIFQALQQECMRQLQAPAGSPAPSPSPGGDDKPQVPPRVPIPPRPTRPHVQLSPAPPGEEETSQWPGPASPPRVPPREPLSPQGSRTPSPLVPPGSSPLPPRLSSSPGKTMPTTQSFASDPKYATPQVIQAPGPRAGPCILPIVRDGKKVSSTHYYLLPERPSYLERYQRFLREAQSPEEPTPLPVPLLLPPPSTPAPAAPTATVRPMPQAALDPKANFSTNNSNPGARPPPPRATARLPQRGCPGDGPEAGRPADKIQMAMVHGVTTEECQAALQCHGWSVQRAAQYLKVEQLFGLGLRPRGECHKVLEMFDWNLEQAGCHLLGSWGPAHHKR
metabolic stability as compared to dasatinib [5],IC50 [6] [nM],microsomal CLint at 1 μM [5] [µL/min/mg],half-life at 1 μM [5] [h],IC50 [7] [nM],ratio of lung tissue concentration to plasma concentration as compared to dasatinib [8],IC50 [9] [nM],intravenous plasma clearance compared to dasatinib and compound III [10],intravenous volume of distribution compared to dasatinib and compound III [10],"clearance [10, 12] [L/h/kg]","Vd [10, 12] [L/kg]","AUC(0-inf) [10, 12] [µg·h/mL]","AUC(0-t) [10, 12] [µg·h/mL]","half-life [10, 12] [h]","AUC(0-inf) [10, 13] [µg·h/mL]","AUC(0-t) [10, 13] [µg·h/mL]","half-life [10, 13] [h]","Cmax [10, 14] [µg/mL]","Tmax [10, 14] [h]",IC50 [11] [nM],SMILES,other results
significantly greater stability,~0.2,,,,,,,,,,,,,,,,,,,"[2H]c1cc(C)c(NC(=O)c2cnc(Nc3cc(N4CCCCC4)nc(C)n3)s2)c(Cl)c1 [Compound I, N-(2-chloro-4-deuterio-6-methyl-phenyl)-2-[[2-methyl-6-(1-piperidyl)pyrimidin-4-yl]amino]thiazole-5-carboxamide]",IC50 [1]: ~0.5 nM; IC50 [2]: ~1.4 nM; inhibition of RAF1 [3]: < 50%; IC50 [4]: ~12 nM
significantly greater stability,< 1,< 24,> 0.983,< 1,significantly lower,< 1,much lower,significantly lower,0.405,1,2.52 ± 0.446,2.52 ± 0.446,1.6 ± 0.2,1.2 ± 0.349,1.12 ± 0.369,6.8 ± 4.1,0.093 ± 0.101,0.5,< 1,"Cc1nc(Nc2ncc(C(=O)Nc3c(C)cccc3Cl)s2)cc(N2CC[C@H](O)C2)n1 [Compound X, N-(2-chloro-6-methylphenyl)-2-[[2-methyl-6-((S)-3-hydroxypyrrolidin-1-yl)pyrimidin-4-yl]amino]thiazole-5-carboxamide]",
significantly greater stability,< 1,< 24,> 0.983,< 1,significantly lower,< 1,much lower,significantly lower,0.406,1,2.48 ± 0.243,2.48 ± 0.243,1.6 ± 0.2,1.5 ± 0.273,1.42 ± 0.343,6 ± 3.6,0.102 ± 0.086,0.5,< 1,"Cc1nc(Nc2ncc(C(=O)Nc3c(C)cccc3Cl)s2)cc(N2CC[C@@H](O)C2)n1 [Compound XI, N-(2-chloro-6-methylphenyl)-2-[[2-methyl-6-((R)-3-hydroxypyrrolidin-1-yl)pyrimidin-4-yl]amino]thiazole-5-carboxamide]","bioavailability ([10]; Sprague-Dawley, rat, plasma, PO 5 mg/kg versus intravenous 1 mg/kg, AUCinf dose normalized (Table 3), read-out: F (percent oral bioavailability)): 24 ± 33.1%"
